# “Also recorded” adds a separate entry of the source. Like-named read-outs stand apart in the source and are kept apart here.
# Assays:
# [1] = Phase 1 MAD safety and tolerability; assay type: in vivo, human; conditions: multiple daily doses over 14 days up to 200 mg (MAD 4)
# From the text: Part B: Part B is a double-blind, randomized, placebo-controlled, MAD, sequential group study in 48 adult HVs, divided in 4 cohorts of 12 adult HVs in each cohort. One or more additional cohorts may be added, as needed.
# All data will be fully listed.
# [2] = Phase 1 MAD plasma pharmacokinetics; assay type: in vivo, human; conditions: for Cmax at 14 days / concentration at 24 h / Tmax at 14 days: human, plasma, oral, steady-state (Day 14); for Cmax at 14 days / concentration at 24 h: geometric mean (% CV); for concentration at 24 h: read-out: Ctrough; for Tmax at 14 days: median (range)
# From the text: The selection of Compound A doses will be guided by the safety, tolerability, and PK data in humans from the SAD portion of the study. […] Increasing dose levels in subsequent MAD cohorts will be identified based on the safety and PK observed in the previous SAD and MAD cohorts. Dose escalation between each MAD cohort will not exceed 100%.
# However, the dosing interval and the duration of dosing may change following review of the safety, PK, and PD data from Part A. […]
# IRAK4 [3] = target: T1, IRAK4 (Rattus norvegicus, UniProt A0A8I6G1H3); test: In vitro IRAK4 degradation in rat splenocytes; assay type: cell-based; conditions: read-out: DC50, IRAK4 degradation
# T1 construct: endogenous in cells; host or cells: rat splenocytes
# [4] = In vivo pharmacokinetic studies in rats, dogs and monkeys
# IRAK4 [5] = test: In vitro IRAK4 degradation in monkey PBMCs; assay type: cell-based
# [6] = Distribution studies in rats; assay type: in vivo
# [7] = system: R848- or LPS-mediated induction of pro-inflammatory cytokines in whole blood; test: Phase 1 SAD ex vivo proinflammatory cytokine induction by R848 and LPS in whole blood; set-up: species or system human; conditions: for Mean maximum percent change from baseline, IFNγ / Mean maximum percent change from baseline, IL1β / Mean maximum percent change from baseline, IL6 / Mean maximum percent change from baseline, IL8 / Mean maximum percent change from baseline, IL10 / Mean maximum percent change from baseline, IL12 / Mean maximum percent change from baseline, IL17 / Mean maximum percent change from baseline, TNFα: Cohort 7
# Plasma protein binding = assay type: in vitro ADME; conditions: across nonclinical species and humans
# Solubility = assay type: physicochemical
# [8] = Excretion study in bile duct-cannulated (BDC) rats; assay type: in vivo
# [9] = system: MSU-crystal induced inflammation; test: Mouse air pouch model of MSU-crystal induced (TLR 2/4-dependent) inflammation; assay type: in vivo; conditions: 3 days twice daily, 30 to 100 mg/kg
# P-glycoprotein (P-gp) = P-glycoprotein (P-gp) (Homo sapiens, UniProt P08183); test: P-gp substrate identification in vitro; assay type: in vitro ADME
# CYP3A4 = CYP3A4 (Homo sapiens, UniProt P08684); test: In vitro drug-drug interaction study, CYP3A4; assay type: in vitro ADME
# Permeability = assay type: in vitro ADME
# [10] = Red blood cell partitioning; assay type: in vitro ADME
# [11] = system: TLR agonist (lipopolysaccharide and R848) and IL-1β-induced proinflammatory cytokine production; test: In vitro cytokine release assays in PBMCs; assay type: cell-based; conditions: LPS
# cytochrome P450 (CYP) = test: In vitro and in vivo metabolism studies; assay type: in vitro ADME
# IRAK4 [12] = target: T2, IRAK4 (Canis lupus familiaris, UniProt A0A8I3S726); test: In vitro IRAK4 degradation in dog PBMCs; assay type: cell-based; conditions: read-out: DC50, IRAK4 degradation
# T2 construct: endogenous in cells; host or cells: dog PBMCs (A3); PBMCs and skin of dosed dogs (A12)
# T2 sequence (A0A8I3S726 1-460): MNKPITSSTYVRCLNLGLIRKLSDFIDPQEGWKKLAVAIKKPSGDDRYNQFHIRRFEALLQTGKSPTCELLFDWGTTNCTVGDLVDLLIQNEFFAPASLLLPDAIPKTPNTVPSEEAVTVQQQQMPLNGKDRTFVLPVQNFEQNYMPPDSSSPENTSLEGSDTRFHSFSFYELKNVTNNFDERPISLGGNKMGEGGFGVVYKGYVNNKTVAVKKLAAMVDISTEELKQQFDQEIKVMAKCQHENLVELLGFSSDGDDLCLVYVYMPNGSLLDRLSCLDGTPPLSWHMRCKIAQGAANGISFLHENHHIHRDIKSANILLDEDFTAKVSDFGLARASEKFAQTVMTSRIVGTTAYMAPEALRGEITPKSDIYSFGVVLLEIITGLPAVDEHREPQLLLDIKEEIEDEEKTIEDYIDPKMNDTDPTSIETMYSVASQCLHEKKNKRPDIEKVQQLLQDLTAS
# CYP2C19 = CYP2C19 (Homo sapiens, UniProt P33261); test: In vitro drug-drug interaction study, CYP2C19; assay type: in vitro ADME
# [13] = system: ex vivo proinflammatory cytokine induction by R848 and LPS in whole blood; test: Phase 1 MAD ex vivo proinflammatory cytokine induction by R848 and LPS in whole blood; set-up: species or system human; conditions: Day 7-14, daily up to about 200 mg
# From the text: In some embodiments, the cytokines include IFN-γ, IL-12, IL-1β, IL-10, IL-6, TNF-α, IL-8, IL-17, and IL-23.
# [14] = Phase 1 MAD Compound A concentration in skin; assay type: in vivo; conditions: human, oral, Day 14, once daily dosing, read-out: Ctrough (pre-dose) levels in skin relative to plasma
# [15] = system: imiquimod psoriasis model; test: Imiquimod psoriasis model (TLR 7/8-dependent); assay type: in vivo, murine
# Sequence of CYP3A4 (P08684 whole entry): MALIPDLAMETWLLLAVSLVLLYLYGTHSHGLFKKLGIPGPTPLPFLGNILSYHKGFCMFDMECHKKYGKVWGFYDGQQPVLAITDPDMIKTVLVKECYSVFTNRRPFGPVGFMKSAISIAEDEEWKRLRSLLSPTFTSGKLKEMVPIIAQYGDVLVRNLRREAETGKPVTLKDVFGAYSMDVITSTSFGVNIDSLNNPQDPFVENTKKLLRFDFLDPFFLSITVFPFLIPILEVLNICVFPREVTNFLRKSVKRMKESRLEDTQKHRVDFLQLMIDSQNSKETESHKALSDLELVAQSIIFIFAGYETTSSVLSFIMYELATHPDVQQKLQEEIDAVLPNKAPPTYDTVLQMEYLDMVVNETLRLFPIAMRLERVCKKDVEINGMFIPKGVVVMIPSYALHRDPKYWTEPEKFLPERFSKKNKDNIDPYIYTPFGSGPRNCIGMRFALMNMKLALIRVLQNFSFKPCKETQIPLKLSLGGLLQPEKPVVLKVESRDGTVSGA
# Sequence of P-glycoprotein (P-gp) (P08183 whole entry): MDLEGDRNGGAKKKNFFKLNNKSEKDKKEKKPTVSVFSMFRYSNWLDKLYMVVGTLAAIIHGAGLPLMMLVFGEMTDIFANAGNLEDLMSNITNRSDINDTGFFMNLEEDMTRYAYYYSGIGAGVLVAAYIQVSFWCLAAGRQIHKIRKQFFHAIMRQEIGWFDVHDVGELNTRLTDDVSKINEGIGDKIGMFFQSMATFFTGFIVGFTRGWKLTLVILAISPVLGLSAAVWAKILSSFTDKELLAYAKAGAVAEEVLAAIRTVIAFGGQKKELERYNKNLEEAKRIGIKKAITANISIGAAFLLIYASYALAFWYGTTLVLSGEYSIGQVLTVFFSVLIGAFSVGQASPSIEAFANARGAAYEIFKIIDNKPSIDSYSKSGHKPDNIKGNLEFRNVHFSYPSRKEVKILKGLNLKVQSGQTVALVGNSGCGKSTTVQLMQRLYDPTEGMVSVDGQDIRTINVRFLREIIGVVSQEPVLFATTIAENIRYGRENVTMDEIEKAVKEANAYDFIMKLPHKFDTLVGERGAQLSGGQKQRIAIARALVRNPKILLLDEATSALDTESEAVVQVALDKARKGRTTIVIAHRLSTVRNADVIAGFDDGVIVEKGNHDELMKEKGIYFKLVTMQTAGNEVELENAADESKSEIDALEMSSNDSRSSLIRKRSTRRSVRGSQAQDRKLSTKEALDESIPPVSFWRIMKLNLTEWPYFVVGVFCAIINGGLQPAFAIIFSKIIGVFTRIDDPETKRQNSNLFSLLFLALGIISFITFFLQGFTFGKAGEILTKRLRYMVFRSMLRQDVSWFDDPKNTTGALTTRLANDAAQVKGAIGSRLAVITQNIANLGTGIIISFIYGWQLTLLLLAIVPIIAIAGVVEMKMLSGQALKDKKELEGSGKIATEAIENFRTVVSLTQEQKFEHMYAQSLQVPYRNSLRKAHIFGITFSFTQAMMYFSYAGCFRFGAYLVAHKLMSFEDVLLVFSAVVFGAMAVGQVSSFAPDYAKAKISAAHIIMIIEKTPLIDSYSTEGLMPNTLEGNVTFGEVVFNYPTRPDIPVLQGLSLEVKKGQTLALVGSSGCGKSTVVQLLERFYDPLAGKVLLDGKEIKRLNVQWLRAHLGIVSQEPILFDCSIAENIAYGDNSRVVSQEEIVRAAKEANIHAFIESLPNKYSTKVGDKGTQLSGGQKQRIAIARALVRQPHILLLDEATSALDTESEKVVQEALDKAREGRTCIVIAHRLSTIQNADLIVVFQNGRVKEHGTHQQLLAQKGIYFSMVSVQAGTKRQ
# Sequence of CYP2C19 (P33261 whole entry): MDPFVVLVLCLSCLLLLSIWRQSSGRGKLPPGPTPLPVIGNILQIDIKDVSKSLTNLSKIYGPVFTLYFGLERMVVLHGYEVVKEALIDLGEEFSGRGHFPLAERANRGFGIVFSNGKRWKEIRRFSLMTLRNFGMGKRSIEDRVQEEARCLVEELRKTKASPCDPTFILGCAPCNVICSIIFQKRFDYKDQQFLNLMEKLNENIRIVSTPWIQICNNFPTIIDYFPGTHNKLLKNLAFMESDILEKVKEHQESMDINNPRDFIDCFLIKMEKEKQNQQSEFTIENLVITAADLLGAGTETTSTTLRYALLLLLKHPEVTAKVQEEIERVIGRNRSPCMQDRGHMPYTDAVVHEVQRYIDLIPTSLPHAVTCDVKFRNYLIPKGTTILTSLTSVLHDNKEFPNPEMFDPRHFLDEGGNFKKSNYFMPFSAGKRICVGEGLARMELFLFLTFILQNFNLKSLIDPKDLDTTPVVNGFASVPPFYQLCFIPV
# T1 sequence (A0A8I6G1H3 1-461): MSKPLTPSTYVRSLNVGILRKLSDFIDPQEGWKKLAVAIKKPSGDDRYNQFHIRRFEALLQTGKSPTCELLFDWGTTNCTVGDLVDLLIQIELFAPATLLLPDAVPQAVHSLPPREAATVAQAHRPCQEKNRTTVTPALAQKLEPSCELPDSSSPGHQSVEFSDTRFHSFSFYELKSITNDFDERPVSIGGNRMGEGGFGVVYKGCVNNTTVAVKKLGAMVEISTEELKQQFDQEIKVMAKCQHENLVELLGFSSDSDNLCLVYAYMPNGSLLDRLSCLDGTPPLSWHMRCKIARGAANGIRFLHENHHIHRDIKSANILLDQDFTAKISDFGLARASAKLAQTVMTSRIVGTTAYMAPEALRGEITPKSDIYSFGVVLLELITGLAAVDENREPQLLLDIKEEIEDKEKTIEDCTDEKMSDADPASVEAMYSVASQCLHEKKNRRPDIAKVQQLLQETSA
smiles,measurement,setting,value
"Cn1c(=O)n([C@@H]2CCC(=O)NC2=O)c2cccc(C#CCOC3CCN(C[C@H]4CC[C@H](n5cc(NC(=O)c6cnn7ccc(N8C[C@H]9C[C@@H]8CO9)nc67)c(C(F)F)n5)CC4)CC3)c21 [Compound A, 5-((1R,4R)-2-oxa-5-azabicyclo[2.2.1]heptan-5-yl)-N-(3-(difluoromethyl)-1-((1r,4R)-4-((4-((3-(1-(2,6-dioxopiperidin-3-yl)-3-methyl-2-oxo-2,3-dihydro-1H-benzo[d]imidazol-4-yl)prop-2-yn-1-yl)oxy)piperidin-1-yl)methyl)cyclohexyl)-1H-pyrazol-4-yl)pyrazolo[1,5-a]pyrimidine-3-carboxamide]",Safety and tolerability,[1],safe and well-tolerated
same,Day of dosing by which steady-state was reached,"[2]; MAD, once daily dosing",≤ 7 days
same,Cmax at 14 days,[2]; 25 mg QD,8.2 ng/mL
same,concentration at 24 h,[2]; 25 mg QD,5.03 ng/mL
same,Tmax at 14 days,[2]; 25 mg QD,8 h
same,Cmax at 14 days,[2]; 50 mg QD,12 ng/mL
same,concentration at 24 h,[2]; 50 mg QD,7.28 ng/mL
same,Tmax at 14 days,[2]; 50 mg QD,8 h
same,Cmax at 14 days,[2]; 100 mg QD,16.1 ng/mL
same,concentration at 24 h,[2]; 100 mg QD,9.81 ng/mL
same,Tmax at 14 days,[2]; 100 mg QD,8 h
same,Cmax at 14 days,[2]; 200 mg QD,25.2 ng/mL
same,concentration at 24 h,[2]; 200 mg QD,18.8 ng/mL
same,Tmax at 14 days,[2]; 200 mg QD,8 h
same,DC50,IRAK4 [3],< 10 nM
same,Bioavailability,[4],low to moderate
same,Clearance,[4],moderate to high
same,Terminal half-life,[4],moderate
same,Volume of distribution at steady state,[4],high
same,Tissue distribution,[6],extensively distributed into tissues
same,Mean maximum ex vivo cytokine inhibition,"[7]; 24-48 h post-dose, LPS or R848, whole blood",up to 97%
same,"Mean maximum percent change from baseline, IFNγ","[7]; LPS, 24-48 hours",−42%^
same,"Mean maximum percent change from baseline, IL1β","[7]; LPS, 24-48 hours",−68%^1
same,"Mean maximum percent change from baseline, IL6","[7]; LPS, 24-48 hours",−62%^1
same,"Mean maximum percent change from baseline, IL8","[7]; LPS, 24-48 hours",−81%^1
same,"Mean maximum percent change from baseline, IL10","[7]; LPS, 24-48 hours",−83%^1
same,"Mean maximum percent change from baseline, IL12","[7]; LPS, 24-48 hours",−35%^2
same,"Mean maximum percent change from baseline, IL17","[7]; LPS, 24-48 hours",−43%^2
same,"Mean maximum percent change from baseline, TNFα","[7]; LPS, 24-48 hours",−42%^2
same,"Mean maximum percent change from baseline, IFNγ","[7]; R848, 24-48 hours",−97%^2
same,"Mean maximum percent change from baseline, IL1β","[7]; R848, 24-48 hours",−92%^1
same,"Mean maximum percent change from baseline, IL6","[7]; R848, 24-48 hours",−88%^1
same,"Mean maximum percent change from baseline, IL8","[7]; R848, 24-48 hours",−54%^
same,"Mean maximum percent change from baseline, IL10","[7]; R848, 24-48 hours",−89%^1
same,"Mean maximum percent change from baseline, IL12","[7]; R848, 24-48 hours",−93%^1
same,"Mean maximum percent change from baseline, IL17","[7]; R848, 24-48 hours",−79%^1
same,"Mean maximum percent change from baseline, TNFα","[7]; R848, 24-48 hours",−88%^2
same,Plasma protein binding,Plasma protein binding,highly bound
same,BCS classification (tentative),Solubility,BCS II
same,solubility,Solubility,low
same,solubility,"Solubility; FaSSIF, pH 6.5, fassif, read-out: Solubility in bio-relevant fluid FaSSIF",< 12000 µg/mL
same,solubility,"Solubility; aqueous media, aqueous buffer, across the physiological pH range, read-out: Aqueous solubility",≤ 3000 µg/mL
same,Biliary and intestinal excretion as parent drug,[8],minor to moderate
same,Renal clearance,[8],negligible
same,IRAK4 levels in the spleen,[9],significantly reduced
same,"Inflammatory exudate, including neutrophils and IL-1β",[9],significantly reduced
same,P-gp substrate,P-glycoprotein (P-gp),substrate
same,Inhibition of CYP3A4,CYP3A4,potential time dependent inhibition
same,Permeability,Permeability,moderate; also recorded: medium
same,Partitioning into red blood cells,[10],did not significantly partition into red blood cells
same,"IC50, inhibition of proinflammatory cytokine production (IL-6, TNF-α, GM-CSF, IL-8)",[11],low nM range
same,Primary metabolizing enzyme,cytochrome P450 (CYP),primarily metabolized by CYP3A4
same,Metabolic pathway,cytochrome P450 (CYP); in vitro and in vivo,oxidative metabolism via cytochrome P450 (CYP)
same,DC50,IRAK4 [12],< 10 nM
same,Inhibition of CYP2C19,CYP2C19,potential time dependent inhibition
same,Inhibition of IFN-γ in whole blood,[13],up to 85%
same,Kp at 14 day,[14],~10
same,Degradation of IRAK4 in the spleen and skin,"[15]; mouse, in vivo",dose-dependent degradation
same,Skin thickness,"[15]; mouse, in vivo",reduction in skin thickness
same,IL-1β in the skin,[15]; p<0.0001,significant reduction
same,IL-6 in the skin,"[15]; p<0.05, 300 mg/kg only",significant reduction

# — patent US12171768B2, “IRAK4 degraders and uses thereof” (priority 2021, dated 2024)
